Results as given in US7282507B2, “Indole derivatives as selective androgen receptor modulators (SARMS)” (Janssen Pharmaceutica N.V., priority 2004, dated 2007).
Several values for one entry are separate records, joined by “and”; a condition that tells them apart may be missing. Identical values can stand only once. Like-named read-outs stand apart in the source and are kept apart here.

Assays:
[1] = target: T1, androgen receptor (AdEasy+rAR, COS-7 cells) (Rattus norvegicus, UniProt P15207); experiment: COS-7 Whole-Cell Androgen Receptor Binding Assay, Adenovirus Transduction; conditions: for % Inhibition, COS Binding / inhibition at 3 µM: concentration of 3000 nM
T1 construct: expressed in transfected cells; host or cells: COS-7 cells transduced with adenovirus AdEasy+rAR
T1 sequence (P15207 1-902): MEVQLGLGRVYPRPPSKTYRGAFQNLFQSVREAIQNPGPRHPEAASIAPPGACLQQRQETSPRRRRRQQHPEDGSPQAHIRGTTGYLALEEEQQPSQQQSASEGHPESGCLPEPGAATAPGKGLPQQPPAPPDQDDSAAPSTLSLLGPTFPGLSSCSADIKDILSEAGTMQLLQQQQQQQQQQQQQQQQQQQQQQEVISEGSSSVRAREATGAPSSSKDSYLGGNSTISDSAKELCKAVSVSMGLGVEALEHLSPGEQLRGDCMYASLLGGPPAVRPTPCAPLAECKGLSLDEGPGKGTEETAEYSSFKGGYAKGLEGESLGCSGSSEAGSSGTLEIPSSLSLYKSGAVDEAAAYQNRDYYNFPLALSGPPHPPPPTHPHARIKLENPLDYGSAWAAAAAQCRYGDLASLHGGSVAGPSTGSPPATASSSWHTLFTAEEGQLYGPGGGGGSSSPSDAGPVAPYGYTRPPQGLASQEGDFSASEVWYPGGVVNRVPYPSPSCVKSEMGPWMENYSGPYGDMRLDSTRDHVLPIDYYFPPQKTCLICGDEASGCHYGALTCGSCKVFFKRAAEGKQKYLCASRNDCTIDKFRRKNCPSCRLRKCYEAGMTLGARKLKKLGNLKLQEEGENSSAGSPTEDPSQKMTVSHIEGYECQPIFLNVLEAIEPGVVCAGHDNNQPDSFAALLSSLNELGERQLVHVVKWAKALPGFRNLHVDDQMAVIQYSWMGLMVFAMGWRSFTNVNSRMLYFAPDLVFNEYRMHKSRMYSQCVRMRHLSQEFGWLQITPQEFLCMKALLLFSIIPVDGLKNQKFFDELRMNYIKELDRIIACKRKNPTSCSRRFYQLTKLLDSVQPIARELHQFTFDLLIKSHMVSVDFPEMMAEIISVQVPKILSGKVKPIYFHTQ
Method: COS-7 cells were plated in 96-well plates at 20,000 cells per well, in a solution of DMEM/F12 (GIBCO) containing 10% (v/v) charcoal-treated fetal bovine serum (Hyclone) and lacking phenol red. The cells were then incubated overnight at 37° C. in 5% (v/v) humidified CO2.
Test compound solutions were prepared by diluting the test compound in 100% (v/v) DMSO, if necessary.
Next, 1 mL of DMEM/F12 lacking phenol red was pipetted into each of the wells of a 2-mL 96-well assay block. […] The wells were carefully mixed by pipette.
In a 15 mL or 50 mL sterile centrifuge tube, a dilution in DMEM/F12 of the adenovirus AdEasy+rAR at a moi of 1:50 per well was prepared.
The medium was removed from the 96-well plates by inversion and the plates dried very briefly, inverted, on a sterile towel. As soon as possible after medium removal, 40 μL of the diluted test compound was added to each well, in duplicate. […] The plates were then incubated for 48 hours at 37° C. in 5% (v/v) humidified CO2.
The medium was removed from the above incubated plates by inversion and dried. Each well was then washed with 0.35 mL of 1× PBS. The PBS was then removed from the plates by inversion and the plates dried.
To each well was then added 50 μL of 0.5% (v/v) Triton X-100 (Sigma) in 1× PBS and the plates placed on a rotary shaker for 5 min. The contents of each well were then transferred to an OptiPlate-96 (Packard) scintillation plate. To each well was then added 0.2 mL of Microscint-20 (Packard) and the wells counted on a TopCount (Packard).
Percent inhibition was determined by testing dilutions of the test compound (usually duplicates of 10 μM) in the binding assay. Counts per well were measured and percents of inhibition determined. […] Counts per well were measured and IC50s determined by linear regression.

[2] = system: testosterone-enhanced ventral prostate and seminal vesicle weights; experiment: Ventral Prostate and Seminal Vesicle Weight in vivo Assay; design: species or system rat; conditions: immature castrated male Sprague Dawley rats, once daily for five days, usually orally 40 mg/kg, with testosterone propionate 2 mg/kg s.c. Note: key: 'active' if the non weight adjusted prostate weight was ≦40 mg or the % Inhibition prostate weight, body weight adjusted was ≧40% @ 2 mg/day dosage; ID50's, if determined, of ≦15 mg/day also indicated an 'active' compound; listed herein as 'inactive' as they did not meet the specified criteria defined above.
How it was run: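 Immature castrated male Sprague Dawley rats (~50 g) were dosed once daily for five days with compound, usually orally at 40 mg/kg in cyclodextrin or methylcellulose vehicle. Testosterone propionate was co-dosed subcutaneously at 2 mg/kg. On day six, ventral prostate and seminal vesicle wet weights were measured; activity was judged on prostate weight or body-weight-adjusted % inhibition.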

[3] = target: T2, androgen receptor (AdEasy+rAR, L929 cells) (Rattus norvegicus, UniProt P15207); experiment: L929 Androgen Receptor Functional Assay, Adenovirus Transduction; type: cell-based; conditions: for % Activity, L929 androgen receptor functional assay / EC50: agonist testing; for % Inhibition, L929 androgen receptor functional assay: antagonist testing with R1881, 3000 nM; for inhibition at 3 µM: L929, antagonist testing with R1881, 3000 nM; for IC50: antagonist testing with R1881
T2 construct: expressed in transfected cells; host or cells: L929 cells transduced with adenovirus AdEasy+rAR
T2 sequence (P15207 1-902): T1 sequence (P15207 1-902)
How it was run: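 L929 cells in phenol red-free, charcoal-stripped serum medium transduced with AdEasy+rAR (moi 1:500) and exposed 48 h at 37 °C to compound alone (agonist mode) or with R1881 (antagonist mode; 2.5 nM as the 2.5× dilution).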

[4] = read-out: IC50 (nM), COS Binding

Structure (SMILES) | active / inactive: inhibition of testosterone-enhanced prostate weight [2] | inhibition at 3 µM [1] | % Inhibition, COS Binding ([1]; 3 µM) | IC50 [1, 4] | other results
C[S+]([O-])CCC(C)(O)c1cc2cc([N+](=O)[O-])c(C(F)(F)F)cc2[nH]1 (mixture of isomers) [Compound 50] | inactive |  |  |  | % Inhibition, COS Binding [1]: 7%; % Activity, L929 androgen receptor functional assay ([3]; 3000 nM): 2%
CSCC(C)(O)c1cc2cc([N+](=O)[O-])c(C(F)(F)F)cc2[nH]1 (racemic) [Compound 139] | active | 94% | 97% | 63 nM and 252 nM | % Activity, L929 androgen receptor functional assay ([3]; 3000 nM, 3 µM): 0% and 1%
CCSCC(C)(O)c1cc2cc(Cl)ccc2n1S(C)(=O)=O (racemic) [Compound 154] |  |  |  |  | % Inhibition, COS Binding [1]: 50%; % Activity, L929 androgen receptor functional assay ([3]; 3000 nM): 2%; % Inhibition, L929 androgen receptor functional assay [3]: 7%
CCSCC(C)(O)c1cc2cc(F)c(C(F)(F)F)cc2[nH]1 (racemic) [Compound 206] | active |  | −40% |  | % Activity, L929 androgen receptor functional assay ([3]; 3000 nM, 3 µM): 5%
CCS(=O)(=O)CC(C)(O)c1[nH]c2cc(C(F)(F)F)c(C#N)cc2c1C (racemic) [Compound 246] |  | 70% |  | 616 nM | 
CC(O)(CSCC(F)(F)F)c1cc2cc([N+](=O)[O-])c(C(F)(F)F)cc2[nH]1 (single isomer, unassigned) [Compound 202] | active |  | 50% |  | % Activity, L929 androgen receptor functional assay ([3]; 3000 nM, 3 µM): 1%
CCSCC(C)(O)c1cc2cc(C#N)c(C(F)(F)F)cc2[nH]1 (single isomer, unassigned) [Compound 217, 2-(2-Ethylsulfanyl-1-hydroxy-1-methyl-ethyl)-6-trifluoromethyl-1H-indole-5-carbonitrile] | active |  | 38% and 61% and 69% |  | inhibition at 3 µM [3]: 87%; EC50 [3]: > 8000 nM; % Activity, L929 androgen receptor functional assay ([3]; 3000 nM): 5%; % Activity, L929 androgen receptor functional assay ([3]; @ 8000 nM): 0 @ 8000 nM %; IC50 [3]: 969 nM and 415 nM and 810 nM; % Inhibition, L929 androgen receptor functional assay ([3]; 3 µM): 80%
CCS(=O)(=O)CC(C)(O)c1cc2cc(C#N)c(C(F)(F)F)cc2[nH]1 (single isomer, unassigned) [Compound 222, 2-(2-Ethanesulfonyl-1-hydroxy-1-methyl-ethyl)-6-trifluoromethyl-1H-indole-5-carbonitrile] | active | 42% |  | 1580 nM | inhibition at 3 µM [3]: 61%; EC50 [3]: > 8000 nM; % Activity, L929 androgen receptor functional assay ([3]; @ 8000 nM): 0 @ 8000 nM %; IC50 [3]: 2410 nM
CCSCC(C)(O)c1cc2cc([N+](=O)[O-])c(C(F)(F)F)cc2n1C (single isomer, unassigned) [Compound 231] | active | 73% | 78% | 665 nM and > 3000 nM | % Activity, L929 androgen receptor functional assay ([3]; 3000 nM, 3 µM): 0% and −1%; IC50 [3]: 3180 nM
CCSCC(C)(O)c1[nH]c2cc(C(F)(F)F)c(C#N)cc2c1C (single isomer, unassigned) [Compound 233, 2-(2-Ethylsulfanyl-1-hydroxy-1-methyl-ethyl)-3-methyl-6-trifluoromethyl-1H-indole-5-carbonitrile] | active |  | 95% and 81% | 45.6 nM | inhibition at 3 µM [3]: 97%; % Activity, L929 androgen receptor functional assay ([3]; 3000 nM, 3 µM): 0%; IC50 [3]: 69.2 nM
CCSCC(C)(O)c1[nH]c2cc(C(F)(F)F)c(C#N)cc2c1C (single isomer, unassigned) [Compound 234, 2-(2-Ethylsulfanyl-1-hydroxy-1-methyl-ethyl)-3-methyl-6-trifluoromethyl-1H-indole-5-carbonitrile] | inactive |  | 71% | 539 nM | % Activity, L929 androgen receptor functional assay ([3]; 3000 nM, 3 µM): −1%; IC50 [3]: 215 nM; % Inhibition, L929 androgen receptor functional assay ([3]; 3 µM): 99%
CCSCC(C)(O)c1[nH]c2cc(C(F)(F)F)c([N+](=O)[O-])cc2c1C#N (single isomer, unassigned) [Compound 247] | inactive | 90% |  | 60.7 nM | 
CCSCC(C)(O)Cc1cc2cc([N+](=O)[O-])c(C(F)(F)F)cc2[nH]1 (stereo not drawn) [Compound 10] | inactive |  |  | > 3000 nM | 
CCSCC(C)(CO)c1cc2cc([N+](=O)[O-])c(C(F)(F)F)cc2[nH]1 (stereo not drawn) [Compound 11] | inactive |  |  | > 3000 nM | 
O=[N+]([O-])c1cc2cc(C3(O)CCSCC3)[nH]c2cc1C(F)(F)F [Compound 17] | inactive |  |  | > 1500 nM | 
COc1ccc(S(=O)(=O)CC(C)(O)c2cc3cc(Cl)c(C(F)(F)F)cc3n2S(C)(=O)=O)cc1 (stereo not drawn) [Compound 128] |  | 21% |  |  | IC50 ([1]; IC50 (nM), COS Binding): > 1500 nM; inhibition at 3 µM [3]: 44%; % Activity, L929 androgen receptor functional assay ([3]; 3000 nM): −4%
CC(O)(CSc1ccc(C(=O)O)cc1)c1cc2cc(Cl)c(C(F)(F)F)cc2n1S(C)(=O)=O (stereo not drawn) [Compound 132] |  | 8.7% |  |  | IC50 ([1]; IC50 (nM), COS Binding): > 3000 nM; inhibition at 3 µM [3]: 48%; % Activity, L929 androgen receptor functional assay ([3]; 3000 nM): −5%
CSCC(C)(O)c1cc2cc(Cl)c(C(F)(F)F)cc2n1S(C)(=O)=O (stereo not drawn) [Compound 134] | inactive |  |  | > 10000 nM | 
CCSCC(C)(OC)c1cc2cc([N+](=O)[O-])c(C(F)(F)F)cc2[nH]1 (stereo not drawn) [Compound 167] | active |  |  | > 3000 nM | 
CCS(=O)(=O)CC(C)(O)c1cc2cc([N+](=O)[O-])c(C(F)(F)F)cc2[nH]1 (stereo not drawn) [Compound 175] | active |  |  | > 3000 nM | 
CCSCC(C)(O)c1cc2ccc(C(F)(F)F)cc2n1S(C)(=O)=O (stereo not drawn) [Compound 214] |  |  |  | > 3000 nM | 
CCSCC(C)(O)c1cc2cc(C#N)c(Cl)cc2[nH]1 (stereo not drawn) [Compound 225] |  | 82% |  | 142 nM | inhibition at 3 µM [3]: 97%; % Activity, L929 androgen receptor functional assay ([3]; 3000 nM): 1%; IC50 [3]: 229 nM
CCSCC(C)(O)c1[nH]c2cc(C(F)(F)F)c([N+](=O)[O-])cc2c1C#N (stereo not drawn) [Compound 242] | inactive | 92% |  | 305 nM | 
